Like-named read-outs stand apart in the source and are kept apart here.
Legend:
[1] = system: TNF-α production in LPS-stimulated human whole blood; test: Inhibition of TNF-α production from human whole blood (hWBA); assay type: cell-based; settings: LPS-stimulated human whole blood, read-out: hWBA
[2] = Area under the curve determination of plasma levels in rats (rrAUC); assay type: in vivo; settings: rat, oral 10 mg/kg
[3] = plasma 0.5-6 h, read-out: RR AUC (nM · h), rapid rat AUC (rrAUC)
[4] = IC50 for inhibition of TNF-α production
[5] = plasma 0.5-6 h post-dosing, read-out: RR AUC

## COc1ccc2c(c1F)C(=O)N(C[C@@]1(C#Cc3cccnc3C)NC(=O)NC1=O)C2 [Compound 2273]
[1]; IC50 for TNF-α production
  IC50: 0.193 µM
[2]; [3]
  AUC: 2.89 µM·h

## COc1ccc2c(c1)C(=O)N(C[C@@]1(C#Cc3ccc4c(C)n[nH]c4c3)NC(=O)NC1=O)C2 [Compound 723]
[1]; [4]
  IC50: 2.95 µM
[2]; [5]
  AUC: 7.59 µM·h

## COc1ccc2c(c1F)C(=O)N(C[C@@]1(C#Cc3ccc4c(c3)CCC43NC(=O)NC3=O)NC(=O)NC1=O)C2 (stereo partly shown) [Compound 2214]
[1]; [4]
  IC50: 0.186 µM
[2]; [5]
  AUC: 3.46 µM·h

## COc1ccc2c(c1)C(=O)N(C[C@@]1(C#Cc3ccc(C(O)C4CCN(C)CC4)cc3)NC(=O)NC1=O)C2 (stereo partly shown) [Compound 500]
[1]; [4]
  IC50: 0.244 µM
[2]; [5]
  AUC: 0.011 µM·h

## COc1ccc2c(c1)C(=O)N(C[C@@]1(C#Cc3ccc(C4(C)NC(=O)NC4=S)cc3)NC(=O)NC1=O)C2 (stereo partly shown) [Compound 2258]
[1]; IC50 for TNF-α production
  IC50: 0.398 µM
[2]; [3]
  AUC: 0.438 µM·h

## COc1ccc2c(c1F)C(=O)N(C[C@@]1(C#Cc3ccc(C)nc3)NC(=O)NC1=O)C2 [Compound 2274]
[1]; IC50 for TNF-α production
  IC50: 0.396 µM
[2]; [3]
  AUC: 16.4 µM·h

## CCN1CCC(C(=O)OC)(c2ccc(C#C[C@]3(CN4Cc5ccc(OC)cc5C4=O)NC(=O)NC3=O)cc2)CC1 [Compound 2276]
[1]; IC50 for TNF-α production
  IC50: 0.288 µM
[2]; [3]
  AUC: 2.32 µM·h

## COc1ccc2c(c1)C(=O)N(C[C@@]1(C#Cc3ccc4c(c3)CCCC43NC(=O)NC3=O)NC(=O)NC1=O)C2 (stereo partly shown) [Compound 2312]
[1]; IC50 for TNF-α production
  IC50: 0.137 µM
[2]; [3]
  AUC: 0.014 µM·h
